Experimental data from patent US8496974B2, “Method for preparing a composition comprising a compound mixture and a carrier agent” (Oy Granula AB Ltd, priority 2008, dated 2013).
Read-outs that look alike come from different tables or passages of the source.

Tests used:
human keratinocyte cells = type: cell-based; settings: 24 h incubation, total protein quantity
[1] = Antioxidative capacity: inhibition of the peroxidation of lipids; type: biochemical; settings: pure polyphenols isolated from wood materials
Source text: In Tables 4A, 4B, 4C and 4D, there are represented antioxidative and free radical capturing effects of pure polyphenolic compounds and of unpurified polyphenolic compounds containing raw extracts obtained from wood bark and stem knotwood.

[2] = Peroxide radicals capturing capacity; type: biochemical; settings: pure polyphenols isolated from wood material
Source text: Tables 4C and 4D further represent the free radicals capturing capacity of certain pure polyphenols and unpurified polyphenol extracts with respect to peroxide radicals.

[3] = pure polyphenols; footnote 1: Willför et al., J. Agric. Food. Chem, 51, 26 (2003); cited from earlier work
[4] = pure polyphenols; footnote 1: Willför et al., J. Agric. Food. Chem., 51, 7600-7606 (2003); cited from earlier work

EC50 μg/L, concentration which inhibits 50% of the peroxidation of the lipids [1] [µg/L]	Compound	EC20 ppm 24 h (limit value by which 20% of the cultivated cells died) (human keratinocyte cells) [ppm]	capturing capacity mmol/g (peroxide radicals) [2] [mmol/g]	EC50 μg/L, concentration which inhibits 50% of the peroxidation of the lipids [3] [µg/L]	capturing capacity mmol/g (peroxide radicals) [4] [mmol/g]
	Cc1cc(C(C)(C)C)c(O)c(C(C)(C)C)c1 [BTH, butylated hydroxytoluene]	5.50			
17	COc1cc([C@H]2c3cc(O)c(OC)cc3C[C@@H](CO)[C@@H]2CO)ccc1O [Cyclolariciresinol]		12		
488	O=C1c2c(O)cc(O)cc2O[C@H](c2ccc(O)cc2)[C@H]1O [Dihydrokaempferol]		0.78		
	COc1cc(C[C@H]2C(=O)OC[C@@H]2[C@H](O)c2ccc(O)c(OC)c2)ccc1O [Hydroxymatairesinol]			58	5.6
	COc1cc(C[C@H]2CO[C@H](c3ccc(O)c(OC)c3)[C@H]2CO)ccc1O [Lariciresinol]			126	2.7
	COc1cc(C[C@H]2COC(=O)[C@@H]2Cc2ccc(O)c(OC)c2)ccc1O [Matairesinol]			99	2.9
36	Oc1ccc([C@H]2Oc3c(ccc(O)c3O)[C@@H](O)[C@H]2O)cc1O [Melacasidine]		20		
	COc1cc(C[C@H]2COC(=O)[C@]2(O)Cc2ccc(O)c(OC)c2)ccc1O [Nortrachelogenin]			53	5.9
1135	O=C1C[C@@H](c2ccccc2)Oc2cc(O)cc(O)c21 [Pinosembrin]		0.49		
50	Oc1cc(O)cc(/C=C/c2ccccc2)c1 [Pinosylvin]		0.78		
	COc1cc(C[C@@H](CO)[C@H](CO)Cc2ccc(O)c(OC)c2)ccc1O [Secoisolariciresinol]			37	8.5
	O=C1c2c(O)cc(O)cc2O[C@H](c2ccc(O)c(O)c2)[C@H]1O [Taxifolin]			46	16
50	Oc1ccc([C@H]2Oc3c(ccc(O)c3O)[C@@H](O)[C@H]2O)cc1 [Teracasidine]		7.8		

Compound	EC50 μg/L, concentration which inhibits 50% of the peroxidation of the lipids [1] [µg/L]	EC20 ppm 24 h (limit value by which 20% of the cultivated cells died) (human keratinocyte cells) [ppm]	capturing capacity mmol/g (peroxide radicals) [2] [mmol/g]	EC50 μg/L, concentration which inhibits 50% of the peroxidation of the lipids [3] [µg/L]	capturing capacity mmol/g (peroxide radicals) [4] [mmol/g]
Pinoresinol	20		7.8		
